Assay results taken from ChEMBL document CHEMBL3217615, “Novel 3,5-bis(arylidiene)-4-piperidone based monocarbonyl analogs of curcumin: anticancer activity evaluation and mode of action study” (2014).

Legend:
Format in all cases: functional
NCI-H522 = test: Growth inhibition of human NCI-H522 cells assessed as cell growth at 10^-5 M after 48 hrs by sulforhodamine B assay; conditions: NCI-H522, 48 h, read-out: Activity
SNB-19 = test: Growth inhibition of human SNB19 cells assessed as cell growth at 10^-5 M after 48 hrs by sulforhodamine B assay; conditions: SNB-19, 48 h, read-out: Activity
[1] = Growth inhibition of human HCT15 cells assessed as cell growth at 10^-5 M after 48 hrs by sulforhodamine B assay; conditions: HCT-15, 48 h, read-out: Activity
[2] = Growth inhibition of human OVCAR4 cells assessed as cell growth at 10^-5 M after 48 hrs by sulforhodamine B assay; conditions: OVCAR-4, 48 h, read-out: Activity
COLO 205 = test: Growth inhibition of human COLO205 cells assessed as cell growth at 10^-5 M after 48 hrs by sulforhodamine B assay; conditions: COLO 205, 48 h, read-out: Activity
KM12 = test: Growth inhibition of human KM12 cells assessed as cell growth at 10^-5 M after 48 hrs by sulforhodamine B assay; conditions: KM12, 48 h, read-out: Activity
RPMI-8226 = test: Growth inhibition of human RPMI8226 cells assessed as cell growth at 10^-5 M after 48 hrs by sulforhodamine B assay; conditions: RPMI-8226, 48 h, read-out: Activity
[3] = Growth inhibition of human UACC62 cells assessed as cell growth at 10^-5 M after 48 hrs by sulforhodamine B assay; conditions: UACC-62, 48 h, read-out: Activity
HOP-62 = test: Growth inhibition of human HOP62 cells assessed as cell growth at 10^-5 M after 48 hrs by sulforhodamine B assay; conditions: HOP-62, 48 h, read-out: Activity
[4] = Growth inhibition of human HCC2998 cells assessed as cell growth at 10^-5 M after 48 hrs by sulforhodamine B assay; conditions: HCC 2998, 48 h, read-out: Activity
Malme-3M = test: Growth inhibition of human MALME-3M cells assessed as cell growth at 10^-5 M after 48 hrs by sulforhodamine B assay; conditions: read-out: Activity
MDA-MB-231 = test: Growth inhibition of human MDA-MB-231 cells assessed as cell growth at 10^-5 M after 48 hrs by sulforhodamine B assay; conditions: MDA-MB-231, 48 h, read-out: Activity
[5] = Growth inhibition of human LOXIMVI cells assessed as cell growth at 10^-5 M after 48 hrs by sulforhodamine B assay; conditions: LOX IMVI, read-out: Activity
SK-OV-3 = test: Growth inhibition of human SKOV3 cells assessed as cell growth at 10^-5 M after 48 hrs by sulforhodamine B assay; conditions: SK-OV-3, 48 h, read-out: Activity
[6] = Growth inhibition of human Hs 578T cells assessed as cell growth at 10^-5 M after 48 hrs by sulforhodamine B assay; conditions: read-out: Activity
[7] = Growth inhibition of human OVCAR3 cells assessed as cell growth at 10^-5 M after 48 hrs by sulforhodamine B assay; conditions: OVCAR-3, 48 h, read-out: Activity
NCI-H226 = test: Growth inhibition of human NCI-H226 cells assessed as cell growth at 10^-5 M after 48 hrs by sulforhodamine B assay; conditions: NCI-H226, 48 h, read-out: Activity
NCI-H23 = test: Growth inhibition of human NCI-H23 cells assessed as cell growth at 10^-5 M after 48 hrs by sulforhodamine B assay; conditions: NCI-H23, 48 h, read-out: Activity
MDA-MB-468 = test: Growth inhibition of human MDA-MB-468 cells assessed as cell growth at 10^-5 M after 48 hrs by sulforhodamine B assay; conditions: MDA-MB-468, 48 h, read-out: Activity
[8] = Growth inhibition of human SF539 cells assessed as cell growth at 10^-5 M after 48 hrs by sulforhodamine B assay; conditions: SF-539, 48 h, read-out: Activity
[9] = Growth inhibition of human RXF393 cells assessed as cell growth at 10^-5 M after 48 hrs by sulforhodamine B assay; conditions: RXF 393, 48 h, read-out: Activity
SR = test: Growth inhibition of human SR cells assessed as cell growth at 10^-5 M after 48 hrs by sulforhodamine B assay; conditions: read-out: Activity
M14 = test: Growth inhibition of human M14 cells assessed as cell growth at 10^-5 M after 48 hrs by sulforhodamine B assay; conditions: M14, 48 h, read-out: Activity
T47D = test: Growth inhibition of human T47D cells assessed as cell growth at 10^-5 M after 48 hrs by sulforhodamine B assay; conditions: read-out: Activity
[10] = Growth inhibition of human MOLT4 cells assessed as cell growth at 10^-5 M after 48 hrs by sulforhodamine B assay; conditions: MOLT-4, 48 h, read-out: Activity
CCRF-CEM = test: Growth inhibition of human CCRF-CEM cells assessed as cell growth at 10^-5 M after 48 hrs by sulforhodamine B assay; conditions: read-out: Activity
IGROV-1 = test: Growth inhibition of human IGROV1 cells assessed as cell growth at 10^-5 M after 48 hrs by sulforhodamine B assay; conditions: IGROV-1, 48 h, read-out: Activity
NCI-H322M = test: Growth inhibition of human NCI-H322M cells assessed as cell growth at 10^-5 M after 48 hrs by sulforhodamine B assay; conditions: read-out: Activity
HCT-116 = test: Growth inhibition of human HCT116 cells assessed as cell growth at 10^-5 M after 48 hrs by sulforhodamine B assay; conditions: HCT-116, 48 h, read-out: Activity
ACHN = test: Growth inhibition of human ACHN cells assessed as cell growth at 10^-5 M after 48 hrs by sulforhodamine B assay; conditions: read-out: Activity
SF-268 = test: Growth inhibition of human SF268 cells assessed as cell growth at 10^-5 M after 48 hrs by sulforhodamine B assay; conditions: SF-268, 48 h, read-out: Activity
[11] = Growth inhibition of human NCI-ADR-RES cells assessed as cell growth at 10^-5 M after 48 hrs by sulforhodamine B assay; conditions: read-out: Activity
[12] = Growth inhibition of human HOP92 cells assessed as cell growth at 10^-5 M after 48 hrs by sulforhodamine B assay; conditions: HOP-92, 48 h, read-out: Activity
NCI-H460 = test: Growth inhibition of human NCI-H460 cells assessed as cell growth at 10^-5 M after 48 hrs by sulforhodamine B assay; conditions: NCI-H460, 48 h, read-out: Activity
A549 = test: Growth inhibition of human A549/ATCC cells assessed as cell growth at 10^-5 M after 48 hrs by sulforhodamine B assay; conditions: A549, 48 h, read-out: Activity
SK-MEL-28 = test: Growth inhibition of human SK-MEL-28 cells assessed as cell growth at 10^-5 M after 48 hrs by sulforhodamine B assay; conditions: SK-MEL-28, 48 h, read-out: Activity

## O=C1/C(=C/c2c(Cl)cccc2Cl)CN(S(=O)(=O)c2ccccc2)C/C1=C\c1c(Cl)cccc1Cl
NCI-H522
  growth at 10 µM: 72.5%
SNB-19
  growth at 10 µM: 92.7%
[1]
  growth at 10 µM: 62%
[2]
  growth at 10 µM: 84.6%
COLO 205
  growth at 10 µM: 92.4%
KM12
  growth at 10 µM: 74.8%
RPMI-8226
  growth at 10 µM: 63.3%
[3]
  growth at 10 µM: 60.5%
HOP-62
  growth at 10 µM: 100%
[4]
  growth at 10 µM: 103%
Malme-3M
  growth at 10 µM: 90%
MDA-MB-231
  growth at 10 µM: 71.2%
[5]
  growth at 10 µM: 78%
SK-OV-3
  growth at 10 µM: 91.9%
[6]
  growth at 10 µM: 93%
[7]
  growth at 10 µM: 73.9%
NCI-H226
  growth at 10 µM: 110%
NCI-H23
  growth at 10 µM: 82.6%
MDA-MB-468
  growth at 10 µM: 80.4%
[8]
  growth at 10 µM: 99.9%
[9]
  growth at 10 µM: 95.3%
SR
  growth at 10 µM: 52.7%
M14
  growth at 10 µM: 66.3%
T47D
  growth at 10 µM: 88.8%
[10]
  growth at 10 µM: 52.8%
CCRF-CEM
  growth at 10 µM: 42.4%
IGROV-1
  growth at 10 µM: 100%
NCI-H322M
  growth at 10 µM: 85%
HCT-116
  growth at 10 µM: 61.7%
ACHN
  growth at 10 µM: 76.3%
SF-268
  growth at 10 µM: 78.6%
[11]
  growth at 10 µM: 81.6%
[12]
  growth at 10 µM: 54.5%
NCI-H460
  growth at 10 µM: 74%
A549
  growth at 10 µM: 67.3%
SK-MEL-28
  growth at 10 µM: 88.1%

## Cc1ccc(S(=O)(=O)N2C/C(=C\c3c(Cl)cccc3Cl)C(=O)/C(=C/c3c(Cl)cccc3Cl)C2)cc1
NCI-H522
  growth at 10 µM: 88.6%
SNB-19
  growth at 10 µM: 95.7%
[1]
  growth at 10 µM: 80.7%
[2]
  growth at 10 µM: 85.3%
COLO 205
  growth at 10 µM: 110%
KM12
  growth at 10 µM: 88.7%
RPMI-8226
  growth at 10 µM: 82.9%
[3]
  growth at 10 µM: 69.5%
HOP-62
  growth at 10 µM: 94.5%
[4]
  growth at 10 µM: 114%
Malme-3M
  growth at 10 µM: 89%
MDA-MB-231
  growth at 10 µM: 64.3%
[5]
  growth at 10 µM: 79.4%
SK-OV-3
  growth at 10 µM: 93.7%
[6]
  growth at 10 µM: 101%
[7]
  growth at 10 µM: 84%
NCI-H226
  growth at 10 µM: 98.1%
NCI-H23
  growth at 10 µM: 97.7%
MDA-MB-468
  growth at 10 µM: 90.4%
[8]
  growth at 10 µM: 106%
[9]
  growth at 10 µM: 101%
SR
  growth at 10 µM: 71.1%
M14
  growth at 10 µM: 79.1%
T47D
  growth at 10 µM: 94%
[10]
  growth at 10 µM: 68.7%
CCRF-CEM
  growth at 10 µM: 72.7%
IGROV-1
  growth at 10 µM: 104%
NCI-H322M
  growth at 10 µM: 93.5%
HCT-116
  growth at 10 µM: 74.2%
ACHN
  growth at 10 µM: 84.2%
SF-268
  growth at 10 µM: 83.6%
[11]
  growth at 10 µM: 90.9%
[12]
  growth at 10 µM: 73.5%
NCI-H460
  growth at 10 µM: 83.3%
A549
  growth at 10 µM: 77.1%
SK-MEL-28
  growth at 10 µM: 101%

## O=C1/C(=C/c2ccc(Cl)cc2Cl)CN(S(=O)(=O)c2ccccc2)C/C1=C\c1ccc(Cl)cc1Cl
NCI-H522
  growth at 10 µM: -51%
SNB-19
  growth at 10 µM: -39.1%
[1]
  growth at 10 µM: -23%
[2]
  growth at 10 µM: 8%
COLO 205
  growth at 10 µM: -38%
KM12
  growth at 10 µM: -57.2%
RPMI-8226
  growth at 10 µM: -29%
[3]
  growth at 10 µM: -79%
HOP-62
  growth at 10 µM: -2.25%
[4]
  growth at 10 µM: -83%
Malme-3M
  growth at 10 µM: -21%
MDA-MB-231
  growth at 10 µM: -52%
[5]
  growth at 10 µM: -58.7%
SK-OV-3
  growth at 10 µM: 44%
[7]
  growth at 10 µM: -67%
NCI-H226
  growth at 10 µM: -62%
NCI-H23
  growth at 10 µM: -37.6%
MDA-MB-468
  growth at 10 µM: -38%
[8]
  growth at 10 µM: -54.1%
[9]
  growth at 10 µM: -87%
SR
  growth at 10 µM: -11.6%
M14
  growth at 10 µM: 17%
T47D
  growth at 10 µM: 7%
[10]
  growth at 10 µM: -2%
CCRF-CEM
  growth at 10 µM: -14%
IGROV-1
  growth at 10 µM: -39%
NCI-H322M
  growth at 10 µM: -29%
HCT-116
  growth at 10 µM: -84%
ACHN
  growth at 10 µM: -24%
SF-268
  growth at 10 µM: 4.96%
[11]
  growth at 10 µM: 20.5%
[12]
  growth at 10 µM: -25%
NCI-H460
  growth at 10 µM: -60%
A549
  growth at 10 µM: -43%
SK-MEL-28
  growth at 10 µM: 27%

## Cc1ccc(S(=O)(=O)N2C/C(=C\c3cc(F)cc(F)c3)C(=O)/C(=C/c3cc(F)cc(F)c3)C2)cc1
NCI-H522
  growth at 10 µM: -84%
SNB-19
  growth at 10 µM: -97%
[1]
  growth at 10 µM: -35%
[2]
  growth at 10 µM: -31.4%
COLO 205
  growth at 10 µM: -73%
KM12
  growth at 10 µM: -82%
RPMI-8226
  growth at 10 µM: -36%
[3]
  growth at 10 µM: -96%
HOP-62
  growth at 10 µM: -60%
[4]
  growth at 10 µM: -89%
Malme-3M
  growth at 10 µM: -75%
MDA-MB-231
  growth at 10 µM: -53%
[5]
  growth at 10 µM: -98%
SK-OV-3
  growth at 10 µM: -26%
[6]
  growth at 10 µM: 8%
[7]
  growth at 10 µM: -84%
NCI-H226
  growth at 10 µM: 47%
NCI-H23
  growth at 10 µM: -33%
MDA-MB-468
  growth at 10 µM: -73%
[8]
  growth at 10 µM: -72%
[9]
  growth at 10 µM: -88%
SR
  growth at 10 µM: -21%
M14
  growth at 10 µM: -68%
T47D
  growth at 10 µM: -20%
[10]
  growth at 10 µM: -17%
CCRF-CEM
  growth at 10 µM: -23%
IGROV-1
  growth at 10 µM: -77%
NCI-H322M
  growth at 10 µM: 25%
HCT-116
  growth at 10 µM: -94%
ACHN
  growth at 10 µM: -91.4%
SF-268
  growth at 10 µM: -43%
[11]
  growth at 10 µM: 7.23%
[12]
  growth at 10 µM: -51%
NCI-H460
  growth at 10 µM: -53%
A549
  growth at 10 µM: 7%
SK-MEL-28
  growth at 10 µM: -87%
